We go through 1 compound from ChEMBL document CHEMBL6153142 (J Med Chem, 2025).

A short description of data set [1]: AUC (0 to infinity) in fasted Beagle dog at 30 mg/kg, po measured upto 24 hrs by LC-MS/MS analysis. In kind it is ADME, organism-based, Canis lupus familiaris. The settings on record: in vivo.
Data set [2] is described as follows: Metabolic stability in human Hepatocyte assessed as clearance. The settings on record: hepatocytes. Type of data set: ADME, cell-based.
Data set [3] in a line: Oral bioavailability in Sprague-Dawley rat at 3 mg/kg by LC-MS/MS analysis. In kind it is ADME, organism-based. The settings on record: in vivo.
The nature of data set [4]: Drug concentration in C57BL/6 mouse blood at 10 mg/kg, po. Type of data set: ADME, organism-based. The settings on record: in vivo, read-out: Ct.
Data set [5] can be described thus: AUC (0 to infinity) in Beagle dog at 30 mg/kg, po measured upto 24 hrs by LC-MS/MS analysis. Type of data set: ADME, organism-based, Canis lupus familiaris. The settings on record: in vivo.
Data set [6] in a line: Volume of distribution at steady state in Beagle dog at 0.1 mg/kg, iv measured upto 24 hrs by LC-MS/MS analysis. Type of data set: ADME, organism-based, Canis lupus familiaris. The note with it: in vivo, read-out: Vdss.
Data set [7] addresses T1, Leukotriene C4 synthase (Mus musculus) (UniProt Q60860).
T1 sequence (whole entry): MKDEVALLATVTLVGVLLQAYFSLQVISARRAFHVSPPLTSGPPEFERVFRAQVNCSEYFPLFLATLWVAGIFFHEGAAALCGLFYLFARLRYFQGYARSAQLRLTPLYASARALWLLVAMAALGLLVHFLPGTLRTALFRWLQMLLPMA
As to the kind of experiment: In-vivo inhibition of LTC4S in mastoparan-induced C57BL/6 mouse model assessed as reduction in LTE4 level in skin at 0.3 mg/kg, po preincubated for 1 hr by LC-MS analysis. Type of data set: functional, organism-based.

The nature of data set [8]: Volume of distribution at steady state in Beagle dog at 1 mg/kg, iv measured upto 24 hrs by LC-MS/MS analysis. In kind it is ADME, organism-based, Canis lupus familiaris. The settings on record: in vivo, read-out: Vdss.
The nature of data set [9]: AUC (0 to infinity) in Beagle dog at 1 mg/kg, iv measured upto 24 hrs by LC-MS/MS analysis. In kind it is ADME, organism-based, Canis lupus familiaris. The note with it: in vivo.
The nature of data set [10]: AUC (0 to infinity) in Sprague-Dawley rat at 3 mg/kg, po by LC-MS/MS analysis. Type of data set: ADME, organism-based. The note with it: in vivo.
For a further data set, the target named is Cytochrome P450 3A4 (Homo sapiens, UniProt P08684). The data set is described as follows: Inhibition of CYP3A4 (unknown origin) at 25 uM relative to control. Type of data set: ADME.
Data set [11] can be described thus: Volume of distribution at steady state in Sprague-Dawley rat at 0.1 mg/kg, iv measured upto 24 hrs by LC-MS/MS analysis. Type of data set: ADME, organism-based. The settings on record: in vivo, read-out: Vdss.
The nature of data set [12]: Oral bioavailability in Sprague-Dawley rat at 3 mg/kg measured upto 24 hrs by LC-MS/MS analysis. The note with it: in vivo. Type of data set: ADME, organism-based.
Data set [13] can be described thus: Half life in Beagle dog at 0.1 mg/kg, iv measured upto 24 hrs by LC-MS/MS analysis. Type of data set: ADME, organism-based, Canis lupus familiaris. The settings on record: in vivo.
Data set [14] can be described thus: Cmax in fasted Beagle dog at 30 mg/kg, po measured upto 24 hrs by LC-MS/MS analysis. In kind it is ADME, organism-based, Canis lupus familiaris. The note with it: in vivo.
Data set [15] in a line: AUC (0 to infinity) in cynomolgus monkey at 0.3 mg/kg, po measured upto 24 hrs by LC-MS/MS analysis. Type of data set: ADME, organism-based, Macaca fascicularis. The settings on record: in vivo.
Data set [16] addresses T1, Leukotriene C4 synthase (Mus musculus). The data set is described as follows: In-vivo inhibition of LTC4S in mastoparan-induced C57BL/6 mouse model assessed as reduction in LTE4 level in skin at 0.1 mg/kg, po preincubated for 1 hr by LC-MS analysis. Type of data set: functional, organism-based.
Data set [17] can be described thus: Metabolic stability in rat Hepatocyte assessed as clearance. In kind it is ADME, cell-based. The note with it: hepatocytes.
A further data set addresses Cytochrome P450 2D6 (Homo sapiens, UniProt P10635). As to the kind of experiment: Inhibition of CYP2D6 (unknown origin) at 25 uM relative to control. Type of data set: ADME.
Data set [18] is described as follows: Half life in Beagle dog at 1 mg/kg, iv measured upto 24 hrs by LC-MS/MS analysis. In kind it is ADME, organism-based, Canis lupus familiaris. The settings on record: in vivo.
Another data set relates to Mus musculus. As to the kind of experiment: Anti-inflammatory activity in ovalbumin-induced po dosed BALB/c mouse model assessed as reduction in eosinophil recruitment in BALF administered twice daily for 3 days. In kind it is functional, organism-based. The note with it: dose 3-30 mg/kg, time 3.0 day.
The nature of data set [19]: Cmax in C57BL6 mouse at 0.3 mg/kg, po measured upto 24 hrs by LC-MS/MS analysis. Type of data set: ADME, organism-based. The settings on record: in vivo.

Chain of Cytochrome P450 3A4 (P08684 whole entry): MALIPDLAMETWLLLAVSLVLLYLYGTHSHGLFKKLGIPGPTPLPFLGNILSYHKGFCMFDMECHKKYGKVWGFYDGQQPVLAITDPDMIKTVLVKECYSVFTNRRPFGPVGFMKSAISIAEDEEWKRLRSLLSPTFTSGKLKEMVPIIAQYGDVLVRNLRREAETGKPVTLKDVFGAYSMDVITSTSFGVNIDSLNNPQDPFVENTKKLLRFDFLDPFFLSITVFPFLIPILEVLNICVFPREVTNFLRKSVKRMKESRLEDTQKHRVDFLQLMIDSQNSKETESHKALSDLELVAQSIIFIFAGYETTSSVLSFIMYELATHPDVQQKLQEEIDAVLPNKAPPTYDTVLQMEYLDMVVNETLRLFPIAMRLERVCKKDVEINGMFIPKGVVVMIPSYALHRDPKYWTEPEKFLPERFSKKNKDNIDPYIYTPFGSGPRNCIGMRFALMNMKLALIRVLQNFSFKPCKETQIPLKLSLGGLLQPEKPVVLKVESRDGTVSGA
Chain of Cytochrome P450 2D6 (P10635 whole entry): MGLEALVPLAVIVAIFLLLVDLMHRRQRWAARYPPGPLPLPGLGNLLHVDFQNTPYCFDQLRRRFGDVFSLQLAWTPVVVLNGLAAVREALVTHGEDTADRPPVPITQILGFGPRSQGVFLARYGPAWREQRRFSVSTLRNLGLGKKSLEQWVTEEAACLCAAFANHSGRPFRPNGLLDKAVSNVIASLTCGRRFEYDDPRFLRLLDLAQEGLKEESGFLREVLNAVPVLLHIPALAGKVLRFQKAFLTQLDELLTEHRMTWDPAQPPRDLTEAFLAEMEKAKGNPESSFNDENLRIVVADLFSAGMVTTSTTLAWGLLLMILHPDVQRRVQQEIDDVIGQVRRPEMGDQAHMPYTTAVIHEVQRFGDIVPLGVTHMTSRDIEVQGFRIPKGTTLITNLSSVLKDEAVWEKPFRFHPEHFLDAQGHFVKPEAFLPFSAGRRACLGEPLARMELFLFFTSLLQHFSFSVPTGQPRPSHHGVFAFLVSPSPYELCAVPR

`O=C1CCCC2(CCN(c3cc(OCC(F)(F)F)ncn3)CC2)N1c1ccc(F)c(F)c1`: the AUC(0-inf) in data set [1] turned out to be 14 µM·h; in [5] it was 3.17 µM·h; in data set [9], 2.56 µM·h; in [10], 8.11 µM·h; in data set [15] it was 0.783 µM·h. The figures for the CLH in data set [2] and in data set [17] were 4 µL/min and 33 µL/min, respectively. In addition, the bioavailability in data set [3] was 75%; in [12], 55%. Also, the concentration in data set [4] was found to be 2910 nM. For the same compound, the Vd was 5.8 L/kg in data set [6], 3.5 L/kg in data set [8] and 2.3 L/kg in [11]. Further, the inhibition in [7] turned out to be 30%; in [16] it was 64%. Besides, the “inhibition (INH)” value against Cytochrome P450 3A4 and against Cytochrome P450 2D6 was “Not_active” each time. Besides, the half-life was 3.9 h in data set [13] and 4.5 h in data set [18]. Moreover, the Cmax is 1390 nM in data set [14] and 383 nM in data set [19]. For the same compound, in the data set on Mus musculus, the Activity result was “Dose-dependent-effect”.

A word on the AUC(0-inf): it is total exposure, with the tail of the curve extrapolated. The term bioavailability denotes dose-corrected exposure relative to a reference, in per cent. Usually inhibition stands for the share of the control response that was lost under treatment. What is called half-life is the time in which the quantity being followed falls by half. For orientation: Cmax means the peak of the concentration-time curve.
